What all share (experiment): kinase panel
What all share (assay type): biochemical

One experiment concerns the target Abl(h) (Homo sapiens, UniProt P00519). The essentials:
(§1)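 % inhibition read-out; kinome panel of 231 kinases; one analogue run on a selected 98-kinase subset only.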

A further experiment has as its target Arg(h) (Homo sapiens, UniProt P42684). The essentials:
as §1

The target of a further experiment is BRK(h) (Homo sapiens, UniProt Q13882). The essentials: as §1
In another experiment the target is CDK3/cyclinE(h) (Homo sapiens, UniProt Q00526). The essentials:
as §1

The next experiment addresses EGFR(h) (Homo sapiens, UniProt P00533). Put shortly: as §1
A further experiment addresses Fes(h) (Homo sapiens, UniProt P07332). Put shortly: as §1
The next experiment addresses T1, Flt3(h) (Homo sapiens, UniProt P36888).
T1 sequence (P36888 27-993): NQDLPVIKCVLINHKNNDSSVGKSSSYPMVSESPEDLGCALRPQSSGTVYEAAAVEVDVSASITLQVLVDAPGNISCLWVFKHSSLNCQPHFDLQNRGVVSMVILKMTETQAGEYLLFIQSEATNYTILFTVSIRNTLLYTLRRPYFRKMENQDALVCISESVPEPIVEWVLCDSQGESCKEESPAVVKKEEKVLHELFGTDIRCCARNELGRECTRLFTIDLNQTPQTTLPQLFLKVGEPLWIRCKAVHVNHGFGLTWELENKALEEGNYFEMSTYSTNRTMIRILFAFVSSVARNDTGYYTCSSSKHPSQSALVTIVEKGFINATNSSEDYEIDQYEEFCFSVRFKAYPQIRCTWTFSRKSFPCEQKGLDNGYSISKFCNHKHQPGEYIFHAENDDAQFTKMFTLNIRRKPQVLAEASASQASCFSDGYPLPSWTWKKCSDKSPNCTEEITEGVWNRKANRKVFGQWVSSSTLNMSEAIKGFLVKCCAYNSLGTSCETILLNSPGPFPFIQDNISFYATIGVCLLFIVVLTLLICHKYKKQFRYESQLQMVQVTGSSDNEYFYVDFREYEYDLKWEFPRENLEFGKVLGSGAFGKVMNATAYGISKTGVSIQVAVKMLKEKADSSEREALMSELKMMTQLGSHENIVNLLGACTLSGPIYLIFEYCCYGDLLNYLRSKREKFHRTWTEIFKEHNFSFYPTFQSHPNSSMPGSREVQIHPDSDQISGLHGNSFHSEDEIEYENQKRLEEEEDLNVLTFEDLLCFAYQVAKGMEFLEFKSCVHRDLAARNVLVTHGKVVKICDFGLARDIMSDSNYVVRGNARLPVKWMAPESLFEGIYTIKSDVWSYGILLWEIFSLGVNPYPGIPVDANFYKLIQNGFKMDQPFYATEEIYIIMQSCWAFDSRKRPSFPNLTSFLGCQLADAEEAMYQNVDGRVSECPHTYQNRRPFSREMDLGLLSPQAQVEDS
Put shortly: as §1

The next experiment addresses GSK3β(h) (Homo sapiens, UniProt P49841). The essentials:
as §1

In the next experiment the target is IRAK1(h) (Homo sapiens, UniProt P51617). Put shortly: as §1
The target in another experiment is JNK1α1(h) (Homo sapiens, UniProt P45983). Put shortly:
as §1

The target of a further experiment is T2, MKK7β(h) (Homo sapiens, UniProt O14733).
T2 sequence (O14733 1-419): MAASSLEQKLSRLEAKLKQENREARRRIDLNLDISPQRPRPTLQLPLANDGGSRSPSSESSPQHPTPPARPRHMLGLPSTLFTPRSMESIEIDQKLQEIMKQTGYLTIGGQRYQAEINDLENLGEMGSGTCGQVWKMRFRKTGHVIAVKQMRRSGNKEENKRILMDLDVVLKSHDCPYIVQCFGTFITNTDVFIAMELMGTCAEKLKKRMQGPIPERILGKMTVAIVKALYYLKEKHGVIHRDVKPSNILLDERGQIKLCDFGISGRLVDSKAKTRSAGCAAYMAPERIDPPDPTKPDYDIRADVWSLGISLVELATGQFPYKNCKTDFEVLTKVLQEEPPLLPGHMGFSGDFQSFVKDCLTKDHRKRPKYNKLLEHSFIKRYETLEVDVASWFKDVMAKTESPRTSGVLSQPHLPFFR
Put shortly: as §1

The target of the next experiment is MSK1(h) (Homo sapiens, UniProt O75582). The essentials: as §1
The target of another experiment is c-RAF(h) (Homo sapiens, UniProt P04049). The essentials: as §1
Sequence of c-RAF(h) (P04049 whole entry): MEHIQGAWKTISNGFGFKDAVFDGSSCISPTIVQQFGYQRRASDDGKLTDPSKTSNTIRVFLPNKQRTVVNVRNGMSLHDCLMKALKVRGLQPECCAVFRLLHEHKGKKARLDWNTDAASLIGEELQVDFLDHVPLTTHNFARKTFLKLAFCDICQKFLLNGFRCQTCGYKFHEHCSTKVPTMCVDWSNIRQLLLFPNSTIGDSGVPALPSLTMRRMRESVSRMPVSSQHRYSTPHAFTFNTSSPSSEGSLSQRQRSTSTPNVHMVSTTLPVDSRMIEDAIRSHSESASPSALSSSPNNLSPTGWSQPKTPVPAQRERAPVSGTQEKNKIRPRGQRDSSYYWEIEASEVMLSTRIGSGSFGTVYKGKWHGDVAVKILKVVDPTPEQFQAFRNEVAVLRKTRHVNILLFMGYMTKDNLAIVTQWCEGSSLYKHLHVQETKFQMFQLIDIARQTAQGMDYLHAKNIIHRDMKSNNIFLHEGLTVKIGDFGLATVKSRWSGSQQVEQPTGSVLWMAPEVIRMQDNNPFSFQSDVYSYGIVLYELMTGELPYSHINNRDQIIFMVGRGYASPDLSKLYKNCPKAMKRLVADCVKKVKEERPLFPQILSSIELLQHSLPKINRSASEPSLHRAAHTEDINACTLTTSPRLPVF

Sequence of JNK1α1(h) (P45983 1-384 isoform P45983-2): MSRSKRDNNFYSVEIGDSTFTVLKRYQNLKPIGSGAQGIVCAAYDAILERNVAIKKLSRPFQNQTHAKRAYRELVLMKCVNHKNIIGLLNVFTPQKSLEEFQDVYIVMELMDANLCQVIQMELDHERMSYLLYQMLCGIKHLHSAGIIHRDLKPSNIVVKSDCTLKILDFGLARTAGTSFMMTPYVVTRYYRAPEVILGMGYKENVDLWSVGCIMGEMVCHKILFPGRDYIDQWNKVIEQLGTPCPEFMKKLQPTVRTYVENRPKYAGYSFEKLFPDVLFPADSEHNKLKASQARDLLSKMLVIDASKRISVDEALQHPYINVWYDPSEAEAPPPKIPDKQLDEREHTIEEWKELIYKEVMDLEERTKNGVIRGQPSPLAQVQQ
Sequence of BRK(h) (Q13882 whole entry): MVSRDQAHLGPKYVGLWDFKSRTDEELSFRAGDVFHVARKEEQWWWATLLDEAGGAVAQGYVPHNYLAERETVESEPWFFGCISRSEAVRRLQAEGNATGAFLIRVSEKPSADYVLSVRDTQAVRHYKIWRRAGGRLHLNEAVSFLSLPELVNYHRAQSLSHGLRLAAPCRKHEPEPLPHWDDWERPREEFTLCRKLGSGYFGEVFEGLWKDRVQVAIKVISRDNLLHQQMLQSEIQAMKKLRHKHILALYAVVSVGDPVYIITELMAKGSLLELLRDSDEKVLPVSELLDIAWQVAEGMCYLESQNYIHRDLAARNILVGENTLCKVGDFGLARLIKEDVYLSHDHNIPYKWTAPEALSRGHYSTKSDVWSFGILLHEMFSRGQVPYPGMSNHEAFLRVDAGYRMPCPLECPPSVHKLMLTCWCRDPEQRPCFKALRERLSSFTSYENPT
Sequence of GSK3β(h) (P49841 whole entry): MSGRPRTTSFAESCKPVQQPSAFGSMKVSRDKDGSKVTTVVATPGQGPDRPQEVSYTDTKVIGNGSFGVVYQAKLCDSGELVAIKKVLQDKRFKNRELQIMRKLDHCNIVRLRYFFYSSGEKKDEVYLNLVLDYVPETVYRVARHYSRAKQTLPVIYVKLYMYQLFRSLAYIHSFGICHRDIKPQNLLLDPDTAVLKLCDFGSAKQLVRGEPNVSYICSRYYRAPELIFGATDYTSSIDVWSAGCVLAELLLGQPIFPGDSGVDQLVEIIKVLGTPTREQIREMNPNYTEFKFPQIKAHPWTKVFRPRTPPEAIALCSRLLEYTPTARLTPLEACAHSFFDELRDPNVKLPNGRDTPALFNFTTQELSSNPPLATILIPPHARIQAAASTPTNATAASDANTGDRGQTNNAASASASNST
Sequence of IRAK1(h) (P51617 whole entry): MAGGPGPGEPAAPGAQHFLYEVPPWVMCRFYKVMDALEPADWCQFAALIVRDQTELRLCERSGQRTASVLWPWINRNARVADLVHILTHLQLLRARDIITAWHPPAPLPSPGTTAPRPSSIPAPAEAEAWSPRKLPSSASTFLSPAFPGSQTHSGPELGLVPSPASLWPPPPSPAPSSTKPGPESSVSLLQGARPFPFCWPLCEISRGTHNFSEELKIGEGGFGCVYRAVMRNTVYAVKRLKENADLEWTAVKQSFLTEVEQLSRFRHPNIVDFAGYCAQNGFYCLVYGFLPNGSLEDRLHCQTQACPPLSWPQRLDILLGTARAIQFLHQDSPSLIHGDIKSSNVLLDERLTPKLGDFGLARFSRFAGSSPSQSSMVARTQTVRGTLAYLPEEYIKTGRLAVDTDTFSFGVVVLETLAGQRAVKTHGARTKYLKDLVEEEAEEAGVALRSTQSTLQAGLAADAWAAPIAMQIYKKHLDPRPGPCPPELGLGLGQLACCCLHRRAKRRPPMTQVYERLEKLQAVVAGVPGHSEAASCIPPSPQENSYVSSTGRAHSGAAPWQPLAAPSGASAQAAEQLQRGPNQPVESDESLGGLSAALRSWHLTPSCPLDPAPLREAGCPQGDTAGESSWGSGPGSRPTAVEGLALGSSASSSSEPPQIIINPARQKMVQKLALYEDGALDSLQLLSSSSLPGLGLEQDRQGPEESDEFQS
Sequence of Abl(h) (P00519 whole entry): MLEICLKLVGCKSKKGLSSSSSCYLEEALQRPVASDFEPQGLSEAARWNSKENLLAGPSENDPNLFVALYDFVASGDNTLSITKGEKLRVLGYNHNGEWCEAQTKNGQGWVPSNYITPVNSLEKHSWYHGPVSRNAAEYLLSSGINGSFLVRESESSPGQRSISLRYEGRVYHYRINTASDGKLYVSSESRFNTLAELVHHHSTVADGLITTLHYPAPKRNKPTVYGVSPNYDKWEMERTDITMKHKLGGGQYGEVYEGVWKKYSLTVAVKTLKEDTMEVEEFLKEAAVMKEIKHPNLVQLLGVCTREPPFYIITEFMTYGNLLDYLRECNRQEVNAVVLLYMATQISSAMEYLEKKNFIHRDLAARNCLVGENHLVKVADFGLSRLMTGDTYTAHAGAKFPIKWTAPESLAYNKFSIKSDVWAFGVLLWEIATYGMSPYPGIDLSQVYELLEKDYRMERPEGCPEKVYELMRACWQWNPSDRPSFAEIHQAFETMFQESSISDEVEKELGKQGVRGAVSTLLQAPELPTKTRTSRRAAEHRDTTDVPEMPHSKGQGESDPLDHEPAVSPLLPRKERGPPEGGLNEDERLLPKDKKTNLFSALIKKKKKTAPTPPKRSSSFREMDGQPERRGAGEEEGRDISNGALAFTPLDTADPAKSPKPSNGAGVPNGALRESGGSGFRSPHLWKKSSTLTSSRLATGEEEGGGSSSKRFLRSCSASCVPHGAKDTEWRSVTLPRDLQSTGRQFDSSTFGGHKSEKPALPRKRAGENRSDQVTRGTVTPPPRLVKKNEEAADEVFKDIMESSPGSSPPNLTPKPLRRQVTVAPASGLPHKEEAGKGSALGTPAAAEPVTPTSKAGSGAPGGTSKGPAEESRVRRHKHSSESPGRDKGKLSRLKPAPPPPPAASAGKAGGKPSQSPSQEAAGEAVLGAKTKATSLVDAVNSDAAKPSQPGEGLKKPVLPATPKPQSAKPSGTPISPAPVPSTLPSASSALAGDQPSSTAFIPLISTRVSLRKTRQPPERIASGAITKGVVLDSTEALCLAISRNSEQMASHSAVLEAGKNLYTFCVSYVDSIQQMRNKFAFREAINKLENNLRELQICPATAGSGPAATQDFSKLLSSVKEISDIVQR
Sequence of CDK3/cyclinE(h) (Q00526 whole entry): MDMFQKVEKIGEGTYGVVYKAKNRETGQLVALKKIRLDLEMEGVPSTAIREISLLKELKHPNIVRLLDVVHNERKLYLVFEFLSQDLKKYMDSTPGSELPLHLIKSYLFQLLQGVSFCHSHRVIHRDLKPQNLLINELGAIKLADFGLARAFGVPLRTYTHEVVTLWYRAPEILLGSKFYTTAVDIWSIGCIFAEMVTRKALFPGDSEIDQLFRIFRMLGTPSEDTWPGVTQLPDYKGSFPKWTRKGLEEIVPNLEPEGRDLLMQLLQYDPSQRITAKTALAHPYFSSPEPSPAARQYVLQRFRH
Sequence of CDK3/cyclinE(h) (P24864 whole entry partner): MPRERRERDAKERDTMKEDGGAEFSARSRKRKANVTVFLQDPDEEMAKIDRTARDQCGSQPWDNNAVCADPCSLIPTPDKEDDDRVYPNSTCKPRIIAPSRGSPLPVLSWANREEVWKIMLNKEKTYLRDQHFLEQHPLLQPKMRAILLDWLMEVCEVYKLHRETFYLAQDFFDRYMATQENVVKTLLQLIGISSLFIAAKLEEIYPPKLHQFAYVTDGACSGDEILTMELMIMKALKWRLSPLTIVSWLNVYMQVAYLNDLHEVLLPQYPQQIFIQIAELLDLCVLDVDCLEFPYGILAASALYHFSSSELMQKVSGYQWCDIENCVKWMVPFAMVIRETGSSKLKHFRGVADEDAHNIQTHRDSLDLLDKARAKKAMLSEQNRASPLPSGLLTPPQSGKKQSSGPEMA

As a reminder, the inhibition is the change of the read-out against control, counted positive when it falls. With `Nc1n[nH]c2ccc(-c3ccnc4[nH]c(-c5ccccc5)cc34)cc12` [Compound 4], the inhibition at 1 µM is 86% at Abl(h); 96% against Arg(h); 46% on BRK(h); 94% against CDK3/cyclinE(h); 13% against EGFR(h); 80% on Fes(h). Besides, the inhibition at 1 µM is 102% against Flt3(h); 92% against GSK3β(h); 89% on IRAK1(h); 80% against JNK1α1(h); 80% against MKK7β(h); -2% against MSK1(h). Moreover, the inhibition at 1 µM at c-RAF(h) came out at 29%.
For `Nc1n[nH]c2ccc(-c3ccnc4[nH]c(-c5cccc(OCc6ccccc6)c5)cc34)cc12` [Compound 5r [SU1261]], the inhibition at 1 µM turned out to be 44% on Abl(h); 76% at Arg(h); 17% against BRK(h); 45% against CDK3/cyclinE(h); 5% on EGFR(h); 50% against Fes(h). Also, the inhibition at 1 µM against Flt3(h) is 46%; against GSK3β(h), 57%; on IRAK1(h), 42%; against JNK1α1(h), 12%; against MKK7β(h), 99%; at MSK1(h) it was -24%. For the same molecule, the inhibition at 1 µM at c-RAF(h) came out at 20%.
On to `Nc1n[nH]c2ccc(-c3ccnc4[nH]c(-c5ccnc(OCc6ccccc6)c5)cc34)cc12` [Compound 6g [SU1349]], for which the inhibition at 1 µM against Abl(h) was 15%; on Arg(h), 24%; at BRK(h) it was 8%; on CDK3/cyclinE(h), 37%; at EGFR(h) it was -8%; at Fes(h) it was -31%. The inhibition at 1 µM against Flt3(h) is 36%; against GSK3β(h) it was 5%; against IRAK1(h), 37%; at JNK1α1(h), 25%; against MKK7β(h), 11%; against MSK1(h) it was -4%. For the same molecule, the inhibition at 1 µM against c-RAF(h) was 2%.

The record behind these values is article PMC11314561, “Design and Synthesis of Novel Aminoindazole-pyrrolo[2,3-b]pyridine Inhibitors of IKKα That Selectively Perturb Cellular Non-Canonical NF-κB Signalling” (Molecules, 2024).
